# Test results from patent US10131652B2, “Pyrimidinyloxy benzene derivatives as herbicides” (E. I. DU PONT DE NEMOURS AND COMPANY, priority 2014, dated 2018).
# Read-outs that look alike come from different tables or passages of the source.
# Tests used:
# Format in all cases: in vivo
# corn (Zea mays) [1] = assay: Test D pre-/postemergence plant response; details: Zea mays, pre-emergence, Preemergence
# Summary of the method: (§1)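 Visual rating, 0–100 scale (0 = no effect, 100 = complete control), versus untreated controls 13 to 15 days after treatment in greenhouse. Preemergence: seeds in loam/sand soil. Postemergence: 2 to 18 cm plants, 1- to 4-leaf stage, peat-based medium. Compounds formulated in non-phytotoxic solvent plus surfactant.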
# [2] = system: ragweed (common ragweed, Ambrosia elatior); assay: Test D pre-/postemergence plant response; details: Ambrosia artemisiifolia; for pest or weed control at 31 g/ha: 31 g ai/ha; for pest or weed control at 62 g/ha: 62 g ai/ha; for pest or weed control at 125 g/ha: 125 g ai/ha
# Summary of the method: as §1
# [3] = system: galium (catchweed bedstraw, Galium aparine); assay: Test D pre-/postemergence plant response; details: Galium; for pest or weed control at 31 g/ha: 31 g ai/ha; for pest or weed control at 62 g/ha: 62 g ai/ha; for pest or weed control at 125 g/ha: 125 g ai/ha
# Summary of the method: as §1
# [4] = system: waterhemp (common waterhemp, Amaranthus rudis); assay: Test D pre-/postemergence plant response; details: Amaranthus tuberculatus; for pest or weed control at 31 g/ha: 31 g ai/ha; for pest or weed control at 62 g/ha: 62 g ai/ha; for pest or weed control at 125 g/ha: 125 g ai/ha
# Summary of the method: as §1
# soybean (Glycine max) = assay: Test D pre-/postemergence plant response; details: Glycine max; for plant injury at 31 g/ha: 31 g ai/ha; for plant injury at 62 g/ha: 62 g ai/ha; for plant injury at 125 g/ha: 125 g ai/ha
# Summary of the method: as §1
# [5] = system: pigweed (Amaranthus retroflexus); assay: Test B pre-/postemergence plant response; details: for pest or weed control at 31 g/ha: 31 g ai/ha
# Summary of the method: (§2)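 Steps: plant seeds in loam soil–sand mix; spray soil preemergence, and in parallel spray 2–10 cm one- to two-leaf plants postemergence; hold ~10 days in greenhouse; visually rate injury against untreated controls (0 = no effect, 100 = complete control).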
# [6] = system: barnyardgrass (Echinochloa crus-galli); assay: Test B pre-/postemergence plant response; details: for pest or weed control at 31 g/ha: 31 g ai/ha
# Summary of the method: as §2
# [7] = system: giant foxtail (Setaria faberii); assay: Test B pre-/postemergence plant response; details: for pest or weed control at 31 g/ha: 31 g ai/ha
# Summary of the method: as §2
# [8] = system: wheat (Triticum aestivum); assay: Test B pre-/postemergence plant response; details: Triticum aestivum, post-emergence, 240 h, read-out: Plant response rating, Wheat
# Summary of the method: as §2
# corn (Zea mays) [9] = assay: Test B pre-/postemergence plant response; details: Zea mays, post-emergence, 240 h
# Summary of the method: as §2
# [10] = post-emergence, Postemergence, scale 0 to 100, 0 no effect, 100 complete control, read-out: Plant response rating, Ragweed
# [11] = pre-emergence, Preemergence, scale 0 to 100 (0 no effect, 100 complete control), read-out: Plant response rating, Ragweed
# [12] = post-emergence, Postemergence, scale 0 to 100, 0 no effect, 100 complete control, read-out: Plant response rating, Galium
# [13] = pre-emergence, Preemergence, scale 0 to 100 (0 no effect, 100 complete control), read-out: Plant response rating, Galium
# [14] = post-emergence, Postemergence, scale 0 to 100, 0 no effect, 100 complete control, read-out: Plant response rating, Waterhemp
# [15] = pre-emergence, Preemergence, scale 0 to 100 (0 no effect, 100 complete control), read-out: Plant response rating, Waterhemp
# [16] = post-emergence, Postemergence, scale 0 to 100, 0 no effect, 100 complete control, read-out: Plant response rating, Soybean
# [17] = pre-emergence, Preemergence, scale 0 to 100 (0 no effect, 100 complete control), read-out: Plant response rating, Soybean
# [18] = Preemergence, 125 g ai/ha, 0 to 100 scale (0 no effect, 100 complete control)
# [19] = 125 g ai/ha, postemergence, 0 to 100 scale, 0 no effect, 100 complete control
# [20] = Postemergence, 31 g ai/ha, 0 to 100 scale (0 no effect, 100 complete control)
smiles,measurement,setting,value
"Fc1cccc(Oc2ncc(Br)cn2)c1-c1cc(C(F)F)no1 [Compound 145, 5-bromo-2-[2-[3-(difluoromethyl)-5-isoxazolyl]-3-fluorophenoxy]pyrimidine]",plant injury at 125 g/ha,"corn (Zea mays) [1]; 125 g ai/ha, read-out: Plant response rating (scale 0 to 100), Corn",45%
same,"Corn plant response rating (crop injury, 0 = no effect, 100 = complete kill) at 16 g/ha","corn (Zea mays) [1]; 16 g ai/ha, scale 0 to 100 (0 no effect, 100 complete control)",0%
same,"Corn plant response rating (crop injury, 0 = no effect, 100 = complete kill) at 31 g/ha","corn (Zea mays) [1]; 31 g ai/ha, scale 0 to 100 (0 no effect, 100 complete control)",5%
same,"Corn plant response rating (crop injury, 0 = no effect, 100 = complete kill) at 62 g/ha","corn (Zea mays) [1]; 62 g ai/ha, scale 0 to 100 (0 no effect, 100 complete control)",10%
same,pest or weed control at 31 g/ha,"[2]; post-emergence, Postemergence, scale 0 to 100 (0 no effect, 100 complete control), read-out: Ragweed plant response rating",50%
same,pest or weed control at 62 g/ha,[2]; [10],50%
same,pest or weed control at 125 g/ha,[2]; [10],65%
same,pest or weed control at 125 g/ha,"[2]; pre-emergence, Preemergence, read-out: Plant response rating (scale 0 to 100), Ragweed",100%
same,pest or weed control at 16 g/ha,"[2]; pre-emergence, Preemergence, 16 g ai/ha, scale 0 to 100 (0 no effect, 100 complete control), read-out: Plant response rating, Ragweed",25%
same,pest or weed control at 31 g/ha,[2]; [11],60%
same,pest or weed control at 62 g/ha,[2]; [11],75%
same,pest or weed control at 31 g/ha,"[3]; post-emergence, Postemergence, scale 0 to 100 (0 no effect, 100 complete control), read-out: Galium plant response rating",80%
same,pest or weed control at 62 g/ha,[3]; [12],80%
same,pest or weed control at 125 g/ha,[3]; [12],90%
same,pest or weed control at 125 g/ha,"[3]; pre-emergence, Preemergence, read-out: Plant response rating (scale 0 to 100), Galium",100%
same,pest or weed control at 16 g/ha,"[3]; pre-emergence, Preemergence, 16 g ai/ha, scale 0 to 100 (0 no effect, 100 complete control), read-out: Plant response rating, Galium",90%
same,pest or weed control at 31 g/ha,[3]; [13],98%
same,pest or weed control at 62 g/ha,[3]; [13],100%
same,pest or weed control at 31 g/ha,"[4]; post-emergence, Postemergence, scale 0 to 100 (0 no effect, 100 complete control), read-out: Waterhemp plant response rating",90%
same,pest or weed control at 62 g/ha,[4]; [14],100%
same,pest or weed control at 125 g/ha,[4]; [14],100%
same,pest or weed control at 125 g/ha,"[4]; pre-emergence, Preemergence, read-out: Plant response rating (scale 0 to 100), Waterhemp",100%
same,pest or weed control at 16 g/ha,"[4]; pre-emergence, Preemergence, 16 g ai/ha, scale 0 to 100 (0 no effect, 100 complete control), read-out: Plant response rating, Waterhemp",100%
same,pest or weed control at 31 g/ha,[4]; [15],100%
same,pest or weed control at 62 g/ha,[4]; [15],100%
same,plant injury at 31 g/ha,"soybean (Glycine max); post-emergence, Postemergence, scale 0 to 100 (0 no effect, 100 complete control), read-out: Soybean plant response rating",60%
same,plant injury at 62 g/ha,soybean (Glycine max); [16],75%
same,plant injury at 125 g/ha,soybean (Glycine max); [16],75%
same,plant injury at 125 g/ha,"soybean (Glycine max); pre-emergence, Preemergence, read-out: Plant response rating (scale 0 to 100), Soybean",90%
same,plant injury at 16 g/ha,"soybean (Glycine max); pre-emergence, Preemergence, 16 g ai/ha, scale 0 to 100 (0 no effect, 100 complete control), read-out: Plant response rating, Soybean",10%
same,plant injury at 31 g/ha,soybean (Glycine max); [17],60%
same,plant injury at 62 g/ha,soybean (Glycine max); [17],75%
same,pest or weed control at 125 g/ha,"[5]; Amaranthus retroflexus, post-emergence, 240 h, 125 g ai/ha, postemergence, 0 to 100 scale, 0 no effect, 100 complete control, read-out: Plant response rating, Pigweed",100%
same,pest or weed control at 31 g/ha,"[5]; Amaranthus retroflexus, post-emergence, 240 h, Postemergence, 0 to 100 scale (0 no effect, 100 complete control), read-out: Plant response rating, Pigweed",100%
same,pest or weed control at 31 g/ha,"[5]; Amaranthus retroflexus, pre-emergence, 240 h, Preemergence, 0 to 100 scale where 0 is no effect and 100 is complete control, read-out: Plant response rating, Pigweed",100%
same,Pigweed plant response rating,[5]; [18],100
same,pest or weed control at 125 g/ha,"[6]; Echinochloa crus-galli, post-emergence, 240 h, 125 g ai/ha, postemergence, 0 to 100 scale, 0 no effect, 100 complete control, read-out: Plant response rating, Barnyardgrass",100%
same,pest or weed control at 31 g/ha,"[6]; Echinochloa crus-galli, post-emergence, 240 h, Postemergence, 0 to 100 scale (0 no effect, 100 complete control), read-out: Plant response rating, Barnyardgrass",40%
same,pest or weed control at 31 g/ha,"[6]; Echinochloa crus-galli, pre-emergence, 240 h, Preemergence, 0 to 100 scale where 0 is no effect and 100 is complete control, read-out: Plant response rating, Barnyardgrass",70%
same,Barnyardgrass plant response rating,[6]; [18],100
same,"Foxtail, Giant plant response rating",[7]; [18],100
same,pest or weed control at 125 g/ha,"[7]; Setaria faberi, post-emergence, 240 h, 125 g ai/ha, postemergence, 0 to 100 scale, 0 no effect, 100 complete control, read-out: Plant response rating, Foxtail, Giant",90%
same,pest or weed control at 31 g/ha,"[7]; Setaria faberi, post-emergence, 240 h, Postemergence, 0 to 100 scale (0 no effect, 100 complete control), read-out: Plant response rating, Foxtail, Giant",70%
same,pest or weed control at 31 g/ha,"[7]; Setaria faberi, pre-emergence, 240 h, Preemergence, 0 to 100 scale where 0 is no effect and 100 is complete control, read-out: Plant response rating, Foxtail, Giant",90%
same,plant injury at 125 g/ha,[8]; [19],70%
same,plant injury at 31 g/ha,[8]; [20],20%
same,"Corn plant response rating (crop injury, 0 = no effect, 100 = complete kill) at 125 g/ha",corn (Zea mays) [9]; [19],70%
same,"Corn plant response rating (crop injury, 0 = no effect, 100 = complete kill) at 31 g/ha",corn (Zea mays) [9]; [20],30%
